According to patent US20090317807A1, “Primers for Use in Detecting Metallo-Beta-Lactamases” (priority 2006, published 2009):
Converted amounts (≈) assume the structure as drawn.

What was measured:
[1] = test system: Pseudomonas aeruginosa (IMP-18); test: Broth microdilution antibiotic susceptibility (MicroScan dehydrated panels, NCCLS criteria); type: cell-based; settings: for MIC: Pseudomonas aeruginosa, read-out: Microdilution MICs
Experimental: The carbapenem-resistant P. aeruginosa isolate investigated in this study was recovered from the tracheal aspirate of a motorcycle accident victim in the southwestern United States.
The isolate was identified by the Phoenix system (Becton Dickinson Diagnostic Systems, Sparks, Md.). Antibiotic susceptibility was determined by broth microdilution method with investigational dehydrated panels provided by Dade Behring MicroScan (Sacramento, Calif.) according to the manufacturer's recommendations and interpreted according to National Committee for Clinical Laboratory Standards (NCCLS) criteria (National Committee for Clinical Laboratory Standards, “Performance Standards for Antimicrobial Susceptibility Testing, Fourteenth informational supplement 24, Wayne, Pa. (2004)).

[2] = test system: Pseudomonas aeruginosa (IMP-18); test: Etest metallo-beta-lactamase strip (imipenem with/without EDTA); type: cell-based
Description: Metallo-beta-lactamase production was phenotypically investigated by using the Etest metallo-beta-lactamase strip (AB BIODISK, Solna, Sweden).

[3] = carbapenem-resistant P. aeruginosa clinical isolate producing IMP-18, broth microdilution

Row | Molecule | MIC [1, 3] [µg/mL] | further results
1 | NCC[C@H](O)C(=O)N[C@@H]1C[C@H](N)[C@@H](O[C@H]2O[C@H](CN)[C@@H](O)[C@H](O)[C@H]2O)[C@H](O)[C@H]1O[C@H]1O[C@H](CO)[C@@H](O)[C@H](N)[C@H]1O [Amikacin] | 64 (≈ 109 µM) | 
2 | C[C@H]1[C@H](NC(=O)/C(=N\OC(C)(C)C(=O)O)c2csc(N)n2)C(=O)N1S(=O)(=O)O [Aztreonam] | 32 (≈ 73.5 µM) | 
3 | CO/N=C(\C(=O)N[C@@H]1C(=O)N2C(C(=O)[O-])=C(C[N+]3(C)CCCC3)CS[C@H]12)c1csc(N)n1 [Cefepime] | > 64 | 
4 | CC(C)(O/N=C(\C(=O)N[C@@H]1C(=O)N2C(C(=O)[O-])=C(C[n+]3ccccc3)CS[C@H]12)c1csc(N)n1)C(=O)O [Ceftazidime] | > 64 | 
5 | CO/N=C(\C(=O)N[C@@H]1C(=O)N2C(C(=O)O)=C(CSc3nc(=O)c(=O)[nH]n3C)CS[C@H]12)c1csc(N)n1 [Ceftriaxone] | > 64 | 
6 | C[C@@H](O)[C@H]1C(=O)N2C(C(=O)O)=C(SCCN=CN)C[C@H]12 [Imipenem] | 64 (≈ 214 µM) | MIC ([2]; Pseudomonas aeruginosa, without EDTA): ≥ 256 µg/mL; MIC of imipenem by Etest in the presence of EDTA ([2]; in the presence of EDTA): 8 µg/mL; fold reduction in the MIC of imipenem in the presence of EDTA ([2]; with vs without EDTA): ≥ 32 fold
7 | C[C@H]1COc2c(N3CCN(C)CC3)c(F)cc3c(=O)c(C(=O)O)cn1c23 [Levofloxacin] | > 16 | 
8 | CN(C)c1ccc(O)c2c1C[C@H]1C[C@H]3[C@H](N(C)C)C(O)=C(C(N)=O)C(=O)[C@@]3(O)C(O)=C1C2=O [Minocycline] | > 128 | 
9 | CN(C)c1cc(NC(=O)CNC(C)(C)C)c(O)c2c1C[C@H]1C[C@H]3[C@H](N(C)C)C(O)=C(C(N)=O)C(=O)[C@@]3(O)C(O)=C1C2=O [Tigecycline] |  | MIC [1]: 32 µg/mL (≈ 54.6 µM)
10 | Gentamicin |  | Microdilution MICs [1, 3]: >32 µg/mL
11 | Polymyxin B |  | Microdilution MICs [1, 3]: 4 µg/mL
